Row | Compound | melting point
1 | CN(C(=O)CCCOc1ccc2nc3n(c(=O)c2c1)CS(=O)(=O)N3)C1CCCCC1 | > 330 °C
2 | CC(NC(=O)OC(C)(C)C)C1CCN(c2c(F)cc3c(=O)[nH]c(=O)n4c3c2CCC4C)C1 (stereo not drawn) | 123 to 125 °C
3 | CON=C(C(C)=O)C(=O)OC | 64.4 °C
4 | CN(C)C=Nc1sc(C=O)c(Br)c1C#N | 220 °C
5 | COC(=O)CN(Cc1ccccc1N)S(=O)(=O)c1ccc(OC)cc1 | 100 to 102 °C
6 | COC(=O)CN1C(=O)C2=C(c3ccc(Cl)cc3C(c3ccccc3Cl)=NC2)C1C (stereo not drawn) | 221 to 223 °C
7 | Cc1cccc2nc3c(nc12)C=CCC3=O | 133 to 135 °C
8 | O=C(Nc1ncc(C(F)(F)F)o1)C1c2ccccc2Oc2cc(F)ccc21 (racemic) | 250 °C
9 | CCNn1nnnc1S | 90 to 91 °C
10 | COC(=O)CC[C@@H](CF)NC(=O)OCc1ccccc1 | 46 to 48 °C
11 | BrCCc1c[nH]c2ccccc12 | 57 to 60 °C
12 | COc1ccc(C=O)c(Br)c1O | 80 to 81.5 °C
13 | CCOC(=O)c1c(C)nn(-c2cccc(N)c2)c1C | 93 to 95 °C
14 | O=C(O)CN(CCN(CC(=O)O)CC(=O)O)CCN(CC(=O)O)CC(=O)NCCC(O)(P(=O)(O)O)P(=O)(O)O | 145 °C
15 | O=C1C=CC(O)(c2cc3ccccc3o2)c2ccccc21 (stereo not drawn) | 105 to 107 °C
16 | N#CC(=NOCF)C(=N)NCl | 97 to 98 °C
17 | NS(=O)(=O)c1ccc(NC(=O)CNc2ccccc2)c(F)c1 | 197 to 198 °C
18 | O=C1C(=O)c2c(nc3cc(Cl)ccn23)-c2ccccc21 | > 300 °C
19 | Cc1c(-c2ccc(O)cc2)n(Cc2ccc(OCCCN3CCCCC3)cc2)c2ccc(O)cc12 | 125 to 130 °C
20 | O=C(CNC(=O)c1n[nH]cc1NC(=O)c1ccccn1)c1ccccc1 | 270 to 271 °C
21 | CN1CN(C)c2nc3n(Cc4ccc(F)cc4)c(=O)cc(O)n3c2C1=O | 214 to 232 °C
22 | CCS(=O)(=O)N[C@H](C(=O)NCCc1ccc(OCCOc2ccc(F)cc2)c(OC)c1)C(C)C | 124 to 125 °C

Row | Compound | melting point
23 | COc1cc(Nc2nccc(-c3ccc(NCCN(C)C)nc3)n2)cc(OC)c1OC | 110 to 111 °C
24 | Cc1ccc(S(=O)(=O)O[C@H](C)C(=O)N2C(=O)N(C)C[C@H]2C(=O)OCc2ccccc2)cc1 | 153 to 155 °C
25 | O=C1NCc2ccccc2N1 | 142 °C
26 | COc1nc2ccccc2cc1C=O | 92 to 93 °C
27 | C[C@H](C(=O)N[C@@H](COC(=O)C(C)(C)C)Cc1ccccc1)c1ccc(NS(C)(=O)=O)c(F)c1 | 117 to 119 °C
28 | CC(C)(C)OC(=O)N[C@H](C(=O)N1CCC[C@H]1C(=O)NC1CCc2nc(N)ncc2C1)C(c1ccccc1)c1ccccc1 (stereo partly drawn) | 127 to 130 °C
29 | CCc1nc(-c2ccc(OCCCn3ccnc3C)cc2)no1 | 77 to 78.5 °C
30 | O=C(NCCN1CCNC1=O)Nc1ccccc1 | 162 to 164 °C
31 | CC(=O)Nc1ccc2c(c1)OCc1cc([N+](=O)[O-])ccc1C2=O | 171 °C
32 | CCc1[nH]n(C2CCCC2)c2nc(C3CCNC4CCCCC43)nc(=O)c1-2 (stereo not drawn) | > 300 °C
33 | CCOC(=O)C(C)(C)CCS(N)(=O)=O | 93 to 94 °C
34 | O=C(O)c1cc(-n2c(-c3ccccc3)cc3c2CCCC3)ccc1O | 209 to 211 °C
35 | Cc1cc(OS(=O)(=O)C(F)(F)F)c2cccc(OCc3ccccc3)c2n1 | 158 °C
36 | S=C(Nc1cccc(Cl)c1)N1CCCSC1c1ccc(Br)cc1 (stereo not drawn) | 144 to 146 °C
37 | COC(=O)CCc1ccc(N2CCN(CCCCC#N)C2=O)cc1 | 99 to 101 °C
38 | CN(C)S(=O)(=O)c1ccc(Br)cc1OC(F)(F)F | 55 to 58 °C
39 | Cc1ccc(Sc2ccccc2C(=O)N(C)C)c([N+](=O)[O-])c1 | 105 to 106 °C
40 | CC(C)(C)c1cc(C[C@@H]2SCNC2=O)cc(C(C)(C)C)c1O | 149 to 150 °C
41 | CC1=C2C(=C(c3ccccc3Cl)N=CC(=O)N2C)NO1 | 136 to 138 °C
42 | CC(=NOCCC(N)=O)c1ccc(Cl)cc1 | 149 to 150 °C
43 | CON(C(=O)c1cn(C)nc1C(F)F)C(C)Cc1c(Cl)cc(Cl)cc1Cl (stereo not drawn) | 110 to 112 °C
44 | CNC(=S)NN=C(CCCCl)c1cccnc1 | 100 to 102 °C

Now from value to molecule:

Row | melting point | Compound
45 | 152 to 153 °C | Cc1nc(N2CCN(Cc3ccccc3)C2=O)sc1C(=O)NCc1ccc(F)c(F)c1
46 | > 285 °C | CCn1c(=O)c2[nH]c(/C=C/c3cc(OC)c(OC)cc3Br)nc2n(CC)c1=O
47 | 160 to 162 °C | Cc1cc(C(O)(CNC(=O)c2ccc(Cl)cc2)C(F)(F)F)ccc1NC(=O)OC(C)(C)C (stereo not drawn)
48 | 194 °C | CNC(=O)C(NC(=O)c1cn(C)nc1C(F)(F)F)C(CO)c1ccccc1 (stereo not drawn)
49 | 190 to 191 °C | CCc1nc(CCc2ccc(NC(=O)/C=C/c3cnn(CC)c3-c3ccc(F)cc3)cc2)cs1
50 | 208 to 210 °C | CCCNc1nc(=O)n(CC2CC2)c2nc(C(C)C)[nH]c12
51 | 60 to 61.3 °C | O=C(Nc1cc(-n2cccn2)nc(-c2ccco2)n1)OCC1CCCC1
52 | 250 to 252 °C | O=c1[nH]cnc2cc(Cl)c(Oc3ccc(Cl)cc3)cc12
53 | 174 to 175 °C | C#Cc1cnn(-c2ccnc3cc(Cl)ccc23)c1
54 | 118 to 120 °C | COC(=O)c1ccc(CN(C(C)C)S(=O)(=O)c2ccc(F)cc2)cc1
55 | 108 to 109 °C | CC(=O)OCOC(c1ccccc1)n1cc(F)c(=O)[nH]c1=O (stereo not drawn)
56 | 122 to 123 °C | Cc1cc2c(cc1N(Cc1ccccc1)Cc1ccccc1)OC(=O)C2C (stereo not drawn)
57 | 38.5 to 40.5 °C | CCCCCCOc1ccc(-c2cc(CBr)ccc2CBr)cc1
58 | 144 to 146 °C | COC(=O)c1ccc(-c2nc3c(OC(C)=O)cccc3s2)cc1
59 | 68 to 69 °C | COc1cccc(NC(=O)[C@H](CC(=O)OC(C)(C)C)NC(=O)OCc2ccccc2)c1
60 | 160 to 165 °C | CCCC1(CCC)c2cc(-c3ccc(Br)s3)ccc2-c2ccc(-c3ccc(Br)s3)cc21
61 | 121 to 123 °C | O=C(/C=C/c1ccc2ccccc2c1)N1CCOC1=O
62 | 69 to 70 °C | CC(=O)c1cncn1C1c2ccccc2CC1(C)C (stereo not drawn)
63 | 244 to 246 °C | CCn1c(=O)n(-c2ccc(Oc3nc4cccnc4n3C)cc2)c2nccc(C(F)(F)F)c21
64 | 121 °C | Clc1ccc(-c2nc(Cl)c3c(n2)CCCC3)cc1

Row | melting point | Compound
65 | 157 °C | Fc1cccc2c(NCCc3ccc(Oc4cccc(C(F)(F)F)n4)cc3)ccnc12
66 | 190 to 191 °C | CC(C)(C)OC(=O)c1n[nH]c2nc(N3CCNCC3)ccc12
67 | 117 to 118 °C | O=C(c1ccc(Sc2ccccc2)cc1)c1ccc(O)cc1O
68 | 76 °C | CCCCCCCCCC(=O)Nc1ccc(C=C(C#N)C(=O)OCC)cc1
69 | 393 to 394 °C | CC(C)c1ccc(-n2nc(O)c3c(=O)c4ccc(Cl)cc4[nH]c3c2=O)cc1
70 | 234 to 235 °C | CC(=O)OCC1OC(Oc2nc[nH]c2C(N)=O)C(OC(C)=O)C(OC(C)=O)C1OC(C)=O (stereo not drawn)
71 | 130 to 140 °C | COCCOc1cc(C)nc(NC(=O)NS(=O)(=O)c2ccccc2Cl)n1
72 | 220 °C | Cc1cc(Nc2ccc(F)cc2)nc(Nc2ccc(S(=O)(=O)N(C)C3CCN(Cc4nccs4)CC3)cc2)n1
73 | 73 to 74 °C | CC(C)(COc1ccccc1)C(=O)c1ccc(Br)cc1
74 | 89 to 90 °C | CCCCC[C@H]1CC[C@H](C=CCCc2ccc(O)cc2)CC1
75 | 134 to 138 °C | OCc1cn(-c2cc(F)cc(Br)c2)cn1
76 | 164 to 166 °C | Nc1cccc(CCC(=O)Nc2ccc(Nc3ccccc3)cc2)c1
77 | 174 to 176 °C | Cn1nnnc1Cc1ccc2c(c1)c(C1=CCN(CCN3CCNC3=O)CC1)cn2-c1ccc(F)cc1
78 | 80 to 82.5 °C | CC(C)(C)ON1C(C)(C)CC(OC(=O)c2ccccc2)CC1(C)C
79 | 124 to 125 °C | S=C(NCC1CCCCC1)NCC1CCCCC1
80 | 115 to 117 °C | CCCCOC(=O)c1ccc(N2CCN(CC=Cc3ccc(Cl)cc3)CC2)cc1
81 | 124 to 126 °C | COc1cc(N)c(Cl)cc1C(=O)NC1CCN(CC2CCN(C(=O)N(C)C)CC2)CC1
82 | 112 to 113 °C | CCCCC1CCC2NC(=O)C(=O)C2C1 (stereo not drawn)
83 | 256 to 257 °C | Cc1cc(C2=Nn3cnnc3SC2c2ccc(F)cc2)nc2c1OCC(=O)N2 (stereo not drawn)
84 | 246 to 248 °C | CC(C)n1nc(-c2sc(NC(=O)c3ccc(CN(C)C)cc3)nc2-c2ccccc2)ccc1=O

Row | melting point | Compound
85 | 63 to 65 °C | COC1=C(OC)C(=O)C2=C(CCC(CCOc3cc(OC)cc(OC)c3)CC2)C1=O
86 | 144 °C | COc1ccc(N2C(=O)C(C)(C)N(c3ccc(Oc4ccccc4)cc3)C2=S)cc1
87 | 238 to 241 °C | COc1ncc(-c2cc(N3CCOCC3)nc(-n3c(C(F)F)nc4c(OC)cccc43)n2)cn1
88 | 158 °C | CCCCNc1ccc(C(=O)O)cc1N
89 | 80 to 82 °C | Brc1ccc(-c2cnc(COCc3cc4ccccc4o3)o2)cc1
90 | 194 to 195 °C | CCn1cc(C(=O)O)c(=O)c2cc(F)c(-c3csc(CN)n3)c(NC)c21
91 | 238 °C | CCOc1cc(-c2cc(C(F)(F)F)nc(-c3ccnc(-c4ccc(S(N)(=O)=O)s4)c3)n2)ccc1C(F)(F)F
92 | 125 to 128 °C | CCOC(=O)c1cnn(-c2cccc(Cl)n2)c1S(N)(=O)=O
93 | 146 to 148 °C | CCOc1cc(NC(=O)NS(=O)(=O)c2ccc(C)cc2)ccn1
94 | 155 to 156 °C | CNC(c1ccc(OC)cc1)c1csc(S(N)(=O)=O)c1 (stereo not drawn)
95 | 64.5 to 65.5 °C | CC(C)OC(=O)Nc1cc(C2CC2)on1
96 | 264 to 266 °C | Nc1cccc2c1CN(c1c(F)cc3c(=O)c(C(=O)O)cn(-c4ccc(F)cc4F)c3c1F)C2
97 | 194 to 196 °C | CN1C(=O)CC[C@]2(C)c3ccc(C(=O)Oc4ccccc4)cc3CC[C@@H]12
98 | 143 to 146 °C | COc1c(C=CC(=O)O)cccc1Oc1ccccc1C
99 | 160 to 162 °C | O=C(O)c1cn(C2CC2)c2c(F)c(N3CCOC(CN4CCCCC4)C3)c(F)cc2c1=O (stereo not drawn)
100 | 100 to 101 °C | O=C1CCC(c2ccc(-c3ccc(Cl)cc3)o2)O1 (stereo not drawn)
101 | 193 °C | Cc1nc(Cl)c2c(c1O)COC2CCc1ccccc1 (stereo not drawn)
102 | 170 to 171 °C | CCCCc1ncc(/C=C(\Cc2cc(OC)cs2)C(=O)O)n1Cc1ccccc1Cl
103 | 146 to 148 °C | CCCCCCCCCCCCCCCC(=O)Nc1cc([N+](=O)[O-])ccc1O

— a melting point compilation (Tetko et al.; mined from patent text by program, amines drawn as free bases though some values may be those of a salt)
